From patent US10253052B2, “HBED-bisphosphonates, radiometal conjugates and their use as theranostic agents” (Five Eleven Pharma Inc., priority 2015, dated 2019)

Assays:
[1] = In vivo biodistribution in mice; parameters: species or system normal CD-1 male mice; conditions: for bone to blood ratio / bone to muscle ratio / Biodistribution: Blood / Biodistribution: Bone / Biodistribution: Brain / Biodistribution: Heart / Biodistribution: Kidney / Biodistribution: Liver / Biodistribution: Lung / Biodistribution: Muscle / Biodistribution: Pancreas / Biodistribution: Skin / Biodistribution: Spleen: iv
Experimental: Biodistribution experiments were performed by intravenously administering ^68Ga labeled 1a-h, 2, 3, BPAMD, and [^18F]NaF into normal, healthy male CD-1 mice (25-30 g). The injection activity was 20-30 μCi/animal. […] Organs of interest were harvested, weighed, and counts of radioactivity were measured by a gamma counter. The biodistribution of each sample was calculated as a percentage of the injected dose per gram of wet tissue weight (% ID/g). Tibia and femur bones were harvested and counted as bone samples.

[2] = In vitro binding to hydroxyapatite; conditions: 20 mg hydroxyapatite in saline, 10 min at room temperature
Experimental: Hydroxyapatite (20 mg, Sigma-Aldrich, reagent grade powder) was incubated in isotonic saline (1 mL) for 24 h. Subsequently, either ^68Ga labeled 1a-h, 2, 3, BPAMD, or [^18F]NaF (1 μCi) was added to the hydroxyapatite suspension. After vortexing for 10 seconds, the suspension was incubated for 10 min at room temperature. The samples were then centrifuged at 10,000 rpm for 3 min and the supernatant was removed. The hydroxyapatite fraction was washed twice with saline (1 mL). Radioactivity in the combined supernatants and the hydroxyapatite fraction was measured using a gamma counter. The proportion of the ^68Ga complex binding to hydroxyapatite was determined as percent of ^68Ga absorbed to hydroxyapatite.

## O=C([O-])CN(CCN(CC(=O)[O-])Cc1cc(CCC(=O)NC(P(=O)(O)O)P(=O)(O)O)ccc1[O-])Cc1cc(CCC(=O)NCCCNC(=O)CCc2ccc(O)c(CN(CCN(CC(=O)O)Cc3cc(CCC(=O)NC(P(=O)(O)O)P(=O)(O)O)ccc3O)CC(=O)O)c2)ccc1[O-].[68Ga+3] [[^68Ga]3]
[1]; 2 min
  bone to blood ratio: 0.5
  bone to muscle ratio: 2.6
[1]; 2 min post injection
  Biodistribution: Blood: 8.33 ± 0.23 % dose/g
  Biodistribution: Bone: 4.17 ± 0.35 % dose/g
  Biodistribution: Brain: 0.28 ± 0.03 % dose/g
  Biodistribution: Heart: 3.45 ± 0.25 % dose/g
  Biodistribution: Kidney: 12.2 ± 1.51 % dose/g
  Biodistribution: Liver: 19.7 ± 1.05 % dose/g
  Biodistribution: Lung: 71.6 ± 6.33 % dose/g
  Biodistribution: Muscle: 1.62 ± 0.47 % dose/g
  Biodistribution: Pancreas: 1.73 ± 0.08 % dose/g
  Biodistribution: Skin: 1.24 ± 0.01 % dose/g
  Biodistribution: Spleen: 12.8 ± 4.35 % dose/g
[1]; 30 min
  bone to blood ratio: 4.8
  bone to muscle ratio: 14
[1]; 30 min (0.5 hr) post injection
  Biodistribution: Blood: 1.92 ± 0.15 % dose/g
  Biodistribution: Bone: 9.26 ± 1.45 % dose/g
  Biodistribution: Brain: 0.06 ± 0.01 % dose/g
  Biodistribution: Heart: 2.02 ± 0.97 % dose/g
  Biodistribution: Kidney: 17.1 ± 0.70 % dose/g
  Biodistribution: Liver: 9.86 ± 0.66 % dose/g
  Biodistribution: Lung: 15.6 ± 1.39 % dose/g
  Biodistribution: Muscle: 0.68 ± 0.09 % dose/g
  Biodistribution: Pancreas: 1.07 ± 1.04 % dose/g
  Biodistribution: Skin: 1.10 ± 0.18 % dose/g
  Biodistribution: Spleen: 8.33 ± 2.22 % dose/g
[1]; 60 min
  bone to blood ratio: 13
  bone to muscle ratio: 16
[1]; 60 min (1 hr) post injection
  Biodistribution: Blood: 0.70 ± 0.13 % dose/g
  Biodistribution: Bone: 9.26 ± 1.13 % dose/g
  Biodistribution: Brain: 0.06 ± 0.01 % dose/g
  Biodistribution: Heart: 1.16 ± 0.13 % dose/g
  Biodistribution: Kidney: 7.99 ± 1.08 % dose/g
  Biodistribution: Liver: 23.5 ± 3.13 % dose/g
  Biodistribution: Lung: 41.3 ± 5.15 % dose/g
  Biodistribution: Muscle: 0.57 ± 0.14 % dose/g
  Biodistribution: Pancreas: 0.26 ± 0.02 % dose/g
  Biodistribution: Skin: 0.41 ± 0.02 % dose/g
  Biodistribution: Spleen: 10.3 ± 2.65 % dose/g
[1]; 120 min
  bone to blood ratio: 29
  bone to muscle ratio: 39
[1]; 120 min post injection
  Biodistribution: Blood: 0.37 ± 0.07 % dose/g
  Biodistribution: Bone: 10.6 ± 0.85 % dose/g
  Biodistribution: Brain: 0.05 ± 0.01 % dose/g
  Biodistribution: Heart: 1.05 ± 0.11 % dose/g
  Biodistribution: Kidney: 8.99 ± 0.20 % dose/g
  Biodistribution: Liver: 25.4 ± 2.80 % dose/g
  Biodistribution: Lung: 34.8 ± 1.90 % dose/g
  Biodistribution: Muscle: 0.28 ± 0.04 % dose/g
  Biodistribution: Pancreas: 0.25 ± 0.03 % dose/g
  Biodistribution: Skin: 0.33 ± 0.06 % dose/g
  Biodistribution: Spleen: 15.7 ± 1.59 % dose/g
[1]; normal mice after iv injection
  Biodistribution result in words (organ uptake, retention, excretion): high liver uptake and less bone localization
[2]
  Hydroxyapatite Binding (%): 95.8 ± 0.1%

## O=C([O-])CN(CCN(CC(=O)[O-])Cc1cc(CCC(=O)O)ccc1[O-])Cc1cc(CCC(=O)O)ccc1[O-].[68Ga+3] [[^68Ga]HBED-CC, reference compound]
[1]; 2 min
  bone to blood ratio: 0.2
  bone to muscle ratio: 0.8
[1]; 2 min post injection
  Biodistribution: Blood: 7.66 ± 0.75 % dose/g
  Biodistribution: Bone: 1.85 ± 0.05 % dose/g
  Biodistribution: Brain: 0.29 ± 0.08 % dose/g
  Biodistribution: Heart: 2.74 ± 0.34 % dose/g
  Biodistribution: Kidney: 27.2 ± 0.64 % dose/g
  Biodistribution: Liver: 1.75 ± 0.08 % dose/g
  Biodistribution: Lung: 4.27 ± 0.34 % dose/g
  Biodistribution: Muscle: 2.30 ± 0.13 % dose/g
  Biodistribution: Pancreas: 1.60 ± 0.12 % dose/g
  Biodistribution: Skin: 3.18 ± 0.43 % dose/g
  Biodistribution: Spleen: 1.69 ± 0.18 % dose/g
[1]; 30 min
  bone to blood ratio: 0.3
  bone to muscle ratio: 0.9
[1]; 30 min (0.5 hr) post injection
  Biodistribution: Blood: 0.83 ± 0.09 % dose/g
  Biodistribution: Bone: 0.28 ± 0.06 % dose/g
  Biodistribution: Brain: 0.04 ± 0.01 % dose/g
  Biodistribution: Heart: 0.34 ± 0.06 % dose/g
  Biodistribution: Kidney: 3.22 ± 0.41 % dose/g
  Biodistribution: Liver: 0.38 ± 0.08 % dose/g
  Biodistribution: Lung: 0.58 ± 0.07 % dose/g
  Biodistribution: Muscle: 0.32 ± 0.06 % dose/g
  Biodistribution: Pancreas: 0.26 ± 0.01 % dose/g
  Biodistribution: Skin: 0.64 ± 0.08 % dose/g
  Biodistribution: Spleen: 0.26 ± 0.04 % dose/g
[1]; 60 min
  bone to blood ratio: 1.7
  bone to muscle ratio: 2.3
[1]; 60 min (1 hr) post injection
  Biodistribution: Blood: 0.14 ± 0.04 % dose/g
  Biodistribution: Bone: 0.25 ± 0.16 % dose/g
  Biodistribution: Brain: 0.02 ± 0.01 % dose/g
  Biodistribution: Heart: 0.17 ± 0.11 % dose/g
  Biodistribution: Kidney: 0.91 ± 0.32 % dose/g
  Biodistribution: Liver: 0.11 ± 0.02 % dose/g
  Biodistribution: Lung: 0.19 ± 0.04 % dose/g
  Biodistribution: Muscle: 0.11 ± 0.04 % dose/g
  Biodistribution: Pancreas: 0.13 ± 0.05 % dose/g
  Biodistribution: Skin: 0.09 ± 0.07 % dose/g
  Biodistribution: Spleen: 0.12 ± 0.02 % dose/g
[1]; 120 min
  bone to blood ratio: 12
  bone to muscle ratio: 3.3
[1]; 120 min post injection
  Biodistribution: Blood: 0.01 ± 0.00 % dose/g
  Biodistribution: Bone: 0.18 ± 0.06 % dose/g
  Biodistribution: Brain: 0.02 ± 0.00 % dose/g
  Biodistribution: Heart: 0.09 ± 0.00 % dose/g
  Biodistribution: Kidney: 0.08 ± 0.05 % dose/g
  Biodistribution: Liver: 0.04 ± 0.02 % dose/g
  Biodistribution: Lung: 0.07 ± 0.02 % dose/g
  Biodistribution: Muscle: 0.05 ± 0.02 % dose/g
  Biodistribution: Pancreas: 0.07 ± 0.01 % dose/g
  Biodistribution: Skin: 0.03 ± 0.01 % dose/g
  Biodistribution: Spleen: 0.13 ± 0.03 % dose/g
[2]
  Hydroxyapatite Binding (%): 0.4±0.1%
